Measurements from PubChem BioAssay AID1259407 (Chemical Carcinogenesis Research Information System (CCRIS), 2018).
Calls of active or inactive are those of the source. The rule behind the calls is not given here.

Test system: CCRIS mutagenicity, Ames/micronucleus/aberration tests
Assay: CCRIS mutagenicity studies
[1] = Test System: AMES SALMONELLA TYPHIMURIUM, Strain/Indicator: TA98, Metabolic Activation: HAMSTER, LIVER, S-9, AROCLOR 1254 (10%), Method: PREINCUBATION
[2] = Test System: AMES SALMONELLA TYPHIMURIUM, Strain/Indicator: TA98, Metabolic Activation: NONE, Method: PREINCUBATION
[3] = Test System: AMES SALMONELLA TYPHIMURIUM, Strain/Indicator: TA100, Metabolic Activation: NONE, Method: PREINCUBATION
[4] = Test System: AMES SALMONELLA TYPHIMURIUM, Strain/Indicator: TA1535, Metabolic Activation: NONE, Method: PREINCUBATION
[5] = Test System: AMES SALMONELLA TYPHIMURIUM, Strain/Indicator: TA1537, Metabolic Activation: NONE, Method: PREINCUBATION
[6] = Test System: AMES SALMONELLA TYPHIMURIUM, Strain/Indicator: TA98, Metabolic Activation: NONE, Method: STANDARD PLATE
[7] = Test System: AMES SALMONELLA TYPHIMURIUM, Strain/Indicator: TA98, Metabolic Activation: RAT, LIVER, S-9, AROCLOR 1254, Method: STANDARD PLATE
[8] = Test System: AMES SALMONELLA TYPHIMURIUM, Strain/Indicator: TA100, Metabolic Activation: NONE, Method: STANDARD PLATE
[9] = Test System: AMES SALMONELLA TYPHIMURIUM, Strain/Indicator: TA100, Metabolic Activation: RAT, LIVER, S-9, AROCLOR 1254, Method: STANDARD PLATE
[10] = Test System: AMES SALMONELLA TYPHIMURIUM, Strain/Indicator: TA1535, Metabolic Activation: NONE, Method: STANDARD PLATE
[11] = Test System: AMES SALMONELLA TYPHIMURIUM, Strain/Indicator: TA1535, Metabolic Activation: RAT, LIVER, S-9, AROCLOR 1254, Method: STANDARD PLATE
[12] = Test System: AMES SALMONELLA TYPHIMURIUM, Strain/Indicator: TA1537, Metabolic Activation: NONE, Method: STANDARD PLATE
[13] = Test System: AMES SALMONELLA TYPHIMURIUM, Strain/Indicator: TA1537, Metabolic Activation: RAT, LIVER, S-9, AROCLOR 1254, Method: STANDARD PLATE
[14] = Test System: AMES SALMONELLA TYPHIMURIUM, Strain/Indicator: TA1538, Metabolic Activation: RAT, LIVER, S-9, AROCLOR 1254, Method: STANDARD PLATE

Compound: Clc1ccc2ccccc2c1
- mutagenic call (Test System: AMES SALMONELLA TYPHIMURIUM, Strain/Indicator: TA97, Metabolic Activation: HAMSTER, LIVER, S-9, AROCLOR 1254 (10 OR 30%), Method: PREINCUBATION): inactive; negative
- mutagenic call (Test System: AMES SALMONELLA TYPHIMURIUM, Strain/Indicator: TA97, Metabolic Activation: NONE, Method: PREINCUBATION): inactive; negative
- mutagenic call (Test System: AMES SALMONELLA TYPHIMURIUM, Strain/Indicator: TA97, Metabolic Activation: RAT, LIVER, S-9, AROCLOR 1254 (10 OR 30%), Method: PREINCUBATION): inactive; negative
- mutagenic call [1]: inactive; negative
- mutagenic call (Test System: AMES SALMONELLA TYPHIMURIUM, Strain/Indicator: TA98, Metabolic Activation: HAMSTER, LIVER, S-9, AROCLOR 1254 (30%), Method: PREINCUBATION): inactive; negative
- mutagenic call [2]: inactive; negative
- mutagenic call (Test System: AMES SALMONELLA TYPHIMURIUM, Strain/Indicator: TA98, Metabolic Activation: RAT, LIVER, S-9, AROCLOR 1254 (10 OR 30%), Method: PREINCUBATION): inactive; negative
- mutagenic call (Test System: AMES SALMONELLA TYPHIMURIUM, Strain/Indicator: TA100, Metabolic Activation: HAMSTER, LIVER, S-9, AROCLOR 1254 (10 OR 30%), Method: PREINCUBATION): inactive; negative
- mutagenic call [3]: inactive; negative
- mutagenic call (Test System: AMES SALMONELLA TYPHIMURIUM, Strain/Indicator: TA100, Metabolic Activation: RAT, LIVER, S-9, AROCLOR 1254 (10 OR 30%), Method: PREINCUBATION): inactive; negative
- mutagenic call (Test System: AMES SALMONELLA TYPHIMURIUM, Strain/Indicator: TA1535, Metabolic Activation: HAMSTER, LIVER, S-9, AROCLOR 1254 (10 OR 30%), Method: PREINCUBATION): inactive; negative
- mutagenic call [4]: inactive; negative
- mutagenic call (Test System: AMES SALMONELLA TYPHIMURIUM, Strain/Indicator: TA1535, Metabolic Activation: RAT, LIVER, S-9, AROCLOR 1254 (10 OR 30%), Method: PREINCUBATION): inactive; negative

Compound: Clc1cc(Cl)c(Cl)c(Cl)c1
- mutagenic call (End Point: IN VITRO CHROMOSOMAL ABERRATIONS, Test System: CHO-LB CELLS, Metabolic Activation: NONE): inactive; negative
- mutagenic call (End Point: IN VITRO CHROMOSOMAL ABERRATIONS, Test System: CHO-LB CELLS, Metabolic Activation: RAT, LIVER, S-9, AROCLOR 1254): inactive; negative
- mutagenic call (Test System: AMES SALMONELLA TYPHIMURIUM, Strain/Indicator: TA98, Metabolic Activation: HAMSTER, LIVER, S-9, AROCLOR 1254, Method: PREINCUBATION): inactive; negative
- mutagenic call [2]: inactive; negative
- mutagenic call (Test System: AMES SALMONELLA TYPHIMURIUM, Strain/Indicator: TA98, Metabolic Activation: RAT, LIVER, S-9, AROCLOR 1254, Method: PREINCUBATION): inactive; negative
- mutagenic call (Test System: AMES SALMONELLA TYPHIMURIUM, Strain/Indicator: TA100, Metabolic Activation: HAMSTER, LIVER, S-9, AROCLOR 1254, Method: PREINCUBATION): inactive; negative
- mutagenic call [3]: inactive; negative
- mutagenic call (Test System: AMES SALMONELLA TYPHIMURIUM, Strain/Indicator: TA100, Metabolic Activation: RAT, LIVER, S-9, AROCLOR 1254, Method: PREINCUBATION): inactive; negative
- mutagenic call (Test System: AMES SALMONELLA TYPHIMURIUM, Strain/Indicator: TA1535, Metabolic Activation: HAMSTER, LIVER, S-9, AROCLOR 1254, Method: PREINCUBATION): inactive; negative
- mutagenic call [4]: inactive; negative
- mutagenic call (Test System: AMES SALMONELLA TYPHIMURIUM, Strain/Indicator: TA1535, Metabolic Activation: RAT, LIVER, S-9, AROCLOR 1254, Method: PREINCUBATION): inactive; negative
- mutagenic call (Test System: AMES SALMONELLA TYPHIMURIUM, Strain/Indicator: TA1537, Metabolic Activation: HAMSTER, LIVER, S-9, AROCLOR 1254, Method: PREINCUBATION): inactive; negative
- mutagenic call [5]: inactive; negative
- mutagenic call (Test System: AMES SALMONELLA TYPHIMURIUM, Strain/Indicator: TA1537, Metabolic Activation: RAT, LIVER, S-9, AROCLOR 1254, Method: PREINCUBATION): inactive; negative

Compound: COC(=O)c1ccc(O)cc1
- mutagenic call [6]: inactive; negative
- mutagenic call [7]: inactive; negative
- mutagenic call [8]: inactive; negative
- mutagenic call [9]: inactive; negative
- mutagenic call [10]: inactive; negative
- mutagenic call [11]: inactive; negative
- mutagenic call [12]: inactive; negative
- mutagenic call [13]: inactive; negative
- mutagenic call (Test System: AMES SALMONELLA TYPHIMURIUM, Strain/Indicator: TA1538, Metabolic Activation: NONE, Method: STANDARD PLATE): inactive; negative
- mutagenic call [14]: inactive; negative
- mutagenic call (Test System: E. COLI, Strain/Indicator: WP2, Metabolic Activation: NONE, Method: STANDARD PLATE): inactive; negative
- mutagenic call (Test System: E. COLI, Strain/Indicator: WP2, Metabolic Activation: RAT, LIVER, S-9, AROCLOR 1254, Method: STANDARD PLATE): inactive; negative

Compound: O[C@@H]1c2ccccc2-c2ccc3ccccc3c2[C@H]1O
- mutagenic call [6]: inactive; negative
- mutagenic call [7]: inactive; negative
- mutagenic call [8]: inactive; negative
- mutagenic call [9]: inactive; negative

Compound: Nc1ccc(CCc2ccccc2)cc1
- mutagenic call [6]: inactive; negative
- mutagenic call [7]: active; positive
- mutagenic call [8]: inactive; negative
- mutagenic call [9]: active; positive

Compound: C[C@]12CC[C@H](OC(=O)/C=C/c3cccc(N(CCCl)CCCl)c3)C[C@@H]1CC[C@@H]1[C@@H]2CC[C@]2(C)NC(=O)CC[C@@H]12
- mutagenic call [6]: inactive; negative
- mutagenic call [7]: inactive; negative
- mutagenic call [8]: inactive; negative
- mutagenic call [9]: inactive; negative
- mutagenic call [10]: inactive; negative
- mutagenic call [11]: inactive; negative
- mutagenic call [12]: inactive; negative
- mutagenic call [13]: inactive; negative

Compound: C=CCN1CCC=C2c3nc(NC(C)=O)sc3CCC21 (stereo not drawn)
- mutagenic call [14]: inactive; negative

Compound: NC1CCC(CC2CCC(N)CC2)CC1 (stereo not drawn)
- mutagenic call [1]: inactive; negative
- mutagenic call [2]: inactive; negative
- mutagenic call (Test System: AMES SALMONELLA TYPHIMURIUM, Strain/Indicator: TA98, Metabolic Activation: RAT, LIVER, S-9, AROCLOR 1254 (10%), Method: PREINCUBATION): inactive; negative
- mutagenic call (Test System: AMES SALMONELLA TYPHIMURIUM, Strain/Indicator: TA100, Metabolic Activation: HAMSTER, LIVER, S-9, AROCLOR 1254 (10%), Method: PREINCUBATION): inactive; negative
- mutagenic call [3]: inactive; negative
- mutagenic call (Test System: AMES SALMONELLA TYPHIMURIUM, Strain/Indicator: TA100, Metabolic Activation: RAT, LIVER, S-9, AROCLOR 1254 (10%), Method: PREINCUBATION): inactive; negative
- mutagenic call (Test System: AMES SALMONELLA TYPHIMURIUM, Strain/Indicator: TA1535, Metabolic Activation: HAMSTER, LIVER, S-9, AROCLOR 1254 (10%), Method: PREINCUBATION): inactive; negative
- mutagenic call [4]: inactive; negative
- mutagenic call (Test System: AMES SALMONELLA TYPHIMURIUM, Strain/Indicator: TA1535, Metabolic Activation: RAT, LIVER, S-9, AROCLOR 1254 (10%), Method: PREINCUBATION): inactive; negative
- mutagenic call (Test System: AMES SALMONELLA TYPHIMURIUM, Strain/Indicator: TA1537, Metabolic Activation: HAMSTER, LIVER, S-9, AROCLOR 1254 (10%), Method: PREINCUBATION): inactive; negative
- mutagenic call [5]: inactive; negative
- mutagenic call (Test System: AMES SALMONELLA TYPHIMURIUM, Strain/Indicator: TA1537, Metabolic Activation: RAT, LIVER, S-9, AROCLOR 1254 (10%), Method: PREINCUBATION): inactive; negative
